Results from US20250145665A1, “MACROCYCLIC PEPTIDES USEFUL AS MODULATORS OF TNF ALPHA” (Bristol-Myers Squibb Company, priority 2023, published 2025).
Read-outs that look alike come from different tables or passages of the source. Starred links: 1 amine or outer side, 2 acyl side, 3 side chain; linkers in the order of their positions; H or OH if unused. Positions of bridges follow the written chain, without caps; N, C: chain ends. Non-standard residues stand in square brackets, D forms with d. Residues, ends and D or L forms follow the SMILES beside them. *: point of attachment. X74 = Cn1nc(C(=O)Nc2ccc(-c3ccc(C[C@H](N[*:1])C(=O)[*:2])cc3)cc2)c2cccnc21; X78 = O=C(Nc1ccc(-c2ccc(C[C@H](N[*:1])C(=O)[*:2])cc2)cc1)c1n[nH]c2ccccc12; X5 = Cn1nc(C(=O)Nc2ccc(-c3ccc(C[C@H](N[*:1])C(=O)[*:2])cc3)cc2)c2ccccc21; X9 = Cn1nc(C(=O)Nc2cccc(-c3ccc(C[C@H](N[*:1])C(=O)[*:2])cc3)c2)c2cccnc21; X17 = O=C(Nc1cccc(-c2ccc(C[C@H](N[*:1])C(=O)[*:2])cc2)c1)c1coc2ccccc12; X47 = O=C(Nc1ccc(-c2ccc(C[C@H](N[*:1])C(=O)[*:2])cc2)cc1)c1coc2ccccc12; Bip(4'-NH) = O=C([C@H](Cc1ccc(-c2ccc(N[*:3])cc2)cc1)N[*:1])[*:2]; Bip(4'-CONHMe) = CNC(=O)c1ccc(-c2ccc(C[C@H](N)C(=O)O)cc2)cc1; Indazole3carbonyl(1-CH2COOH) = O=C(O)Cn1nc(C(=O)*)c2ccccc21; Bip(4'-COOH) = N[C@@H](Cc1ccc(-c2ccc(C(=O)O)cc2)cc1)C(=O)O; Bip(4'-NHAc) = CC(=O)Nc1ccc(-c2ccc(C[C@H](N)C(=O)O)cc2)cc1; Ala(morpholin-4-yl) = N[C@@H](CN1CCOCC1)C(=O)O; Phe(3-CONH2) = NC(=O)c1cccc(C[C@H](N)C(=O)O)c1; Bip = N[C@@H](Cc1ccc(-c2ccccc2)cc1)C(=O)O; 2Pal = N[C@@H](Cc1ccccn1)C(=O)O; Tic = O=C(O)[C@@H]1Cc2ccccc2CN1; Cha = N[C@@H](CC1CCCCC1)C(=O)O; Tle = CC(C)(C)[C@H](N)C(=O)O; Aze = O=C(O)[C@@H]1CCN1; Sar = CNCC(=O)O

Target: TNFα (Homo sapiens, UniProt P01375)
Sequence (P01375 77-233 limits assumed): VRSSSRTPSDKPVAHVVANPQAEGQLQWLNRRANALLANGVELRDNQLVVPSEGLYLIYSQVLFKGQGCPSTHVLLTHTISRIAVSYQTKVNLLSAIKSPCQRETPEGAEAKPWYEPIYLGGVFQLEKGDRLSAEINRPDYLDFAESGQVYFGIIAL
Assay: TNF-Induced HEK-Blue Assay
Format: cell-based
[1] = HEK-Blue-CD40L cells, NF-kB-driven secreted alkaline phosphatase reporter, TNFα 0.5 ng/ml, 18 h, read-out: TNF induced HEK-Blue assay IC50 value

Row | SMILES | IC50 [nM] | IC50 [1] [nM]
1 | CC(C)C[C@@H]1NC(=O)[C@H](CCCNC(=N)N)NC(=O)[C@H](C(C)C)NC(=O)[C@@H]2CCCN2C(=O)[C@H](C(C)C)NC(=O)[C@@H](CCCNC(=N)N)NC(=O)[C@H](CC(=O)O)NC(=O)[C@@H]2CCCN2C(=O)CN(C)C(=O)[C@H](Cc2ccc(-c3ccc(NC(=O)c4nn(CC(=O)O)c5ccccc45)cc3)cc2)NC(=O)[C@H](Cc2ccc(-c3ccccc3)cc2)NC(=O)[C@H](CN2CCOCC2)NC(=O)CSC[C@@H](C(=O)NCC(N)=O)NC1=O [Example 333] ({CH2CO}-[Ala(morpholin-4-yl)][Bip][Bip(4'-NH)](Indazole3carbonyl(1-CH2COOH))[Sar]PD[dR]VPVRLCG-NH2; thioether N-13) | < 50 | –
2 | CC[C@H](C)[C@@H]1NC(=O)[C@@H]2CCCN2C(=O)[C@H]([C@@H](C)CC)NC(=O)[C@@H](CCCNC(=N)N)NC(=O)[C@H](CC(=O)O)NC(=O)[C@H](Cc2ccccc2)NC(=O)CN(C)C(=O)[C@H](Cc2ccc(-c3ccc(NC(=O)c4nn(C)c5ccccc45)cc3)cc2)NC(=O)[C@H](Cc2ccc(-c3ccc(C(=O)O)cc3)cc2)NC(=O)[C@H](C(C)(C)C)NC(=O)CSC[C@@H](C(=O)NCC(N)=O)NC(=O)[C@H](CC(C)C)NC(=O)[C@H](Cc2cnc[nH]2)NC1=O [Example 334] ({CH2CO}-[Tle][Bip(4'-COOH)][X5][Sar]FD[dR]IPIHLCG-NH2; thioether N-13) | – | < 50
3 | CC[C@H](C)[C@@H]1NC(=O)[C@@H]2CCCN2C(=O)[C@H]([C@@H](C)CC)NC(=O)[C@@H](CCCNC(=N)N)NC(=O)[C@H](CC(=O)O)NC(=O)[C@H](Cc2ccccn2)NC(=O)CN(C)C(=O)[C@H](Cc2ccc(-c3ccc(NC(=O)c4nn(C)c5ccccc45)cc3)cc2)NC(=O)[C@H](Cc2ccc(-c3ccccc3)cc2)NC(=O)[C@H](C(C)(C)C)NC(=O)CSC[C@@H](C(=O)NCC(N)=O)NC(=O)[C@H](CC(C)C)NC(=O)[C@H](Cc2cccc(C(N)=O)c2)NC1=O [Example 335] ({CH2CO}-[Tle][Bip][X5][Sar][2Pal]D[dR]IPI[Phe(3-CONH2)]LCG-NH2; thioether N-13) | – | 50 to 200
4 | CC[C@H](C)[C@@H]1NC(=O)[C@@H](CCCNC(=N)N)NC(=O)[C@H](CC(=O)O)NC(=O)[C@H](Cc2cnc[nH]2)NC(=O)CN(C)C(=O)[C@H](Cc2ccc(-c3ccc(NC(=O)c4nn(C)c5ccccc45)cc3)cc2)NC(=O)[C@H](Cc2ccc(-c3ccc(C(=O)O)cc3)cc2)NC(=O)[C@H](CC2CCCCC2)NC(=O)CSC[C@@H](C(=O)NCC(N)=O)NC(=O)[C@H](CC(C)C)NC(=O)[C@H](Cc2cnc[nH]2)NC(=O)[C@H](C(C)C)NC(=O)[C@@H]2Cc3ccccc3CN2C1=O [Example 336] ({CH2CO}-[Cha][Bip(4'-COOH)][X5][Sar]HD[dR]I[Tic]VHLCG-NH2; thioether N-13) | – | < 50
5 | CC[C@H](C)[C@@H]1NC(=O)[C@@H]2CCN2C(=O)[C@H]([C@@H](C)CC)NC(=O)[C@@H](CCCNC(=N)N)NC(=O)[C@H](CC(=O)O)NC(=O)[C@H](Cc2ccc(O)cc2)NC(=O)CN(C)C(=O)[C@H](Cc2ccc(-c3ccc(NC(=O)c4nn(C)c5ccccc45)cc3)cc2)NC(=O)[C@H](Cc2ccc(-c3ccccc3)cc2)NC(=O)[C@H](C(C)(C)C)NC(=O)CSC[C@@H](C(=O)NCC(N)=O)NC(=O)[C@H](CC(C)C)NC(=O)[C@H](Cc2ccc(O)cc2)NC1=O [Example 337] ({CH2CO}-[Tle][Bip][X5][Sar]YD[dR]I[Aze]IYLCG-NH2; thioether N-13) | – | 50 to 200
6 | CC(C)C[C@@H]1NC(=O)[C@H](CCCNC(=N)N)NC(=O)[C@H](C(C)C)NC(=O)[C@@H]2CCCN2C(=O)[C@H](C(C)C)NC(=O)[C@@H](CCCNC(=N)N)NC(=O)[C@H](CC(=O)O)NC(=O)[C@@H]2CCCN2C(=O)CN(C)C(=O)[C@H](Cc2ccc(-c3ccc(NC(=O)c4nn(C)c5ccccc45)cc3)cc2)NC(=O)[C@H](Cc2ccc(-c3ccccc3)cc2)NC(=O)[C@H](CN2CCOCC2)NC(=O)CSC[C@@H](C(=O)NCC(N)=O)NC1=O [Example 338] ({CH2CO}-[Ala(morpholin-4-yl)][Bip][X5][Sar]PD[dR]VPVRLCG-NH2; thioether N-13) | – | < 50
7 | CC(C)C[C@@H]1NC(=O)[C@H](Cc2ccccn2)NC(=O)[C@H](C(C)C)NC(=O)[C@@H]2CCCN2C(=O)[C@H](C(C)C)NC(=O)[C@@H](CCCNC(=N)N)NC(=O)[C@H](CC(=O)O)NC(=O)[C@H](Cc2ccc(O)cc2)NC(=O)CN(C)C(=O)[C@H](Cc2ccc(-c3ccc(NC(=O)c4nn(C)c5ccccc45)cc3)cc2)NC(=O)[C@H](Cc2ccc(-c3ccc(C(=O)O)cc3)cc2)NC(=O)[C@H](CC2CCCCC2)NC(=O)CSC[C@@H](C(=O)NCC(N)=O)NC1=O [Example 339] ({CH2CO}-[Cha][Bip(4'-COOH)][X5][Sar]YD[dR]VPV[2Pal]LCG-NH2; thioether N-13) | – | < 50
8 | CC(C)C[C@@H]1NC(=O)[C@H](Cc2ccc(O)cc2)NC(=O)[C@H](C(C)C)NC(=O)[C@@H]2CCCN2C(=O)[C@H](C(C)C)NC(=O)[C@@H](CCCNC(=N)N)NC(=O)[C@H](CC(=O)O)NC(=O)[C@@H]2CCCN2C(=O)CN(C)C(=O)[C@H](Cc2ccc(-c3ccc(NC(=O)c4nn(C)c5ccccc45)cc3)cc2)NC(=O)[C@H](Cc2ccc(-c3ccc(C(=O)O)cc3)cc2)NC(=O)[C@H](CC2CCCCC2)NC(=O)CSC[C@@H](C(=O)NCC(N)=O)NC1=O [Example 340] ({CH2CO}-[Cha][Bip(4'-COOH)][X5][Sar]PD[dR]VPVYLCG-NH2; thioether N-13) | – | < 50
9 | CC[C@H](C)[C@@H]1NC(=O)[C@@H](CCCNC(=N)N)NC(=O)[C@H](CC(=O)O)NC(=O)[C@H](Cc2cnc[nH]2)NC(=O)CN(C)C(=O)[C@H](Cc2ccc(-c3ccc(NC(=O)c4nn(C)c5ccccc45)cc3)cc2)NC(=O)[C@H](Cc2ccc(-c3ccccc3)cc2)NC(=O)[C@H](CC2CCCCC2)NC(=O)CSC[C@@H](C(=O)NCC(N)=O)NC(=O)[C@H](CC(C)C)NC(=O)[C@H](Cc2cnc[nH]2)NC(=O)[C@H](C(C)C)NC(=O)[C@@H]2CCCN2C1=O [Example 341] ({CH2CO}-[Cha][Bip][X5][Sar]HD[dR]IPVHLCG-NH2; thioether N-13) | – | < 50
10 | CC[C@H](C)[C@@H]1NC(=O)[C@@H](CCCNC(=N)N)NC(=O)[C@H](CC(=O)O)NC(=O)[C@H](Cc2cnc[nH]2)NC(=O)CN(C)C(=O)[C@H](Cc2ccc(-c3ccc(NC(C)=O)cc3)cc2)NC(=O)[C@H](Cc2ccc(-c3ccc(C(=O)NC)cc3)cc2)NC(=O)[C@H](CC2CCCCC2)NC(=O)CSC[C@@H](C(=O)NCC(N)=O)NC(=O)[C@H](CC(C)C)NC(=O)[C@H](Cc2cnc[nH]2)NC(=O)[C@H](C(C)C)NC(=O)[C@@H]2CCCN2C1=O [Example 342] ({CH2CO}-[Cha][Bip(4'-CONHMe)][Bip(4'-NHAc)][Sar]HD[dR]IPVHLCG-NH2; thioether N-13) | – | < 50
11 | CC(C)C[C@@H]1NC(=O)[C@H](CCCNC(=N)N)NC(=O)[C@H](C(C)C)NC(=O)[C@@H]2CCCN2C(=O)[C@H](C(C)C)NC(=O)[C@@H](CCCNC(=N)N)NC(=O)[C@H](CC(=O)O)NC(=O)[C@@H]2CCCN2C(=O)CN(C)C(=O)[C@H](Cc2ccc(-c3ccc(NC(=O)c4n[nH]c5ccccc45)cc3)cc2)NC(=O)[C@H](Cc2ccc(-c3ccccc3)cc2)NC(=O)[C@H](CN2CCOCC2)NC(=O)CSC[C@@H](C(=O)NCC(N)=O)NC1=O [Example 343] ({CH2CO}-[Ala(morpholin-4-yl)][Bip][X78][Sar]PD[dR]VPVRLCG-NH2; thioether N-13) | – | < 50
12 | CC(C)C[C@@H]1NC(=O)[C@H](CCCNC(=N)N)NC(=O)[C@H](C(C)C)NC(=O)[C@@H]2CCCN2C(=O)[C@H](C(C)C)NC(=O)[C@@H](CCCNC(=N)N)NC(=O)[C@H](CC(=O)O)NC(=O)[C@@H]2CCCN2C(=O)CN(C)C(=O)[C@H](Cc2ccc(-c3cccc(NC(=O)c4coc5ccccc45)c3)cc2)NC(=O)[C@H](Cc2ccc(-c3ccccc3)cc2)NC(=O)[C@H](CN2CCOCC2)NC(=O)CSC[C@@H](C(=O)NCC(N)=O)NC1=O [Example 344] ({CH2CO}-[Ala(morpholin-4-yl)][Bip][X17][Sar]PD[dR]VPVRLCG-NH2; thioether N-13) | – | < 50
13 | CC(C)C[C@@H]1NC(=O)[C@H](CCCNC(=N)N)NC(=O)[C@H](C(C)C)NC(=O)[C@@H]2CCCN2C(=O)[C@H](C(C)C)NC(=O)[C@@H](CCCNC(=N)N)NC(=O)[C@H](CC(=O)O)NC(=O)[C@@H]2CCCN2C(=O)CN(C)C(=O)[C@H](Cc2ccc(-c3cccc(NC(=O)c4nn(C)c5ncccc45)c3)cc2)NC(=O)[C@H](Cc2ccc(-c3ccccc3)cc2)NC(=O)[C@H](CN2CCOCC2)NC(=O)CSC[C@@H](C(=O)NCC(N)=O)NC1=O [Example 345] ({CH2CO}-[Ala(morpholin-4-yl)][Bip][X9][Sar]PD[dR]VPVRLCG-NH2; thioether N-13) | – | < 50
14 | CC(C)C[C@@H]1NC(=O)[C@H](CCCNC(=N)N)NC(=O)[C@H](C(C)C)NC(=O)[C@@H]2CCCN2C(=O)[C@H](C(C)C)NC(=O)[C@@H](CCCNC(=N)N)NC(=O)[C@H](CC(=O)O)NC(=O)[C@@H]2CCCN2C(=O)CN(C)C(=O)[C@H](Cc2ccc(-c3ccc(NC(=O)c4coc5ccccc45)cc3)cc2)NC(=O)[C@H](Cc2ccc(-c3ccccc3)cc2)NC(=O)[C@H](CN2CCOCC2)NC(=O)CSC[C@@H](C(=O)NCC(N)=O)NC1=O [Example 346] ({CH2CO}-[Ala(morpholin-4-yl)][Bip][X47][Sar]PD[dR]VPVRLCG-NH2; thioether N-13) | – | < 50
15 | CC(C)C[C@@H]1NC(=O)[C@H](CCCNC(=N)N)NC(=O)[C@H](C(C)C)NC(=O)[C@@H]2CCCN2C(=O)[C@H](C(C)C)NC(=O)[C@@H](CCCNC(=N)N)NC(=O)[C@H](CC(=O)O)NC(=O)[C@@H]2CCCN2C(=O)CN(C)C(=O)[C@H](Cc2ccc(-c3ccc(NC(=O)c4nn(C)c5ncccc45)cc3)cc2)NC(=O)[C@H](Cc2ccc(-c3ccccc3)cc2)NC(=O)[C@H](CN2CCOCC2)NC(=O)CSC[C@@H](C(=O)NCC(N)=O)NC1=O [Example 347] ({CH2CO}-[Ala(morpholin-4-yl)][Bip][X74][Sar]PD[dR]VPVRLCG-NH2; thioether N-13) | – | < 50
